ChEMBL document CHEMBL1201862, “PubChem BioAssay data set” (2004)
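Five compound concentrations were applied to cells in 96-well plates for 48 hours; endpoints were derived by simple linear interpolation of the resulting dose-response curve. GI50 marks 50% less growth.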 The source made the active and inactive calls. Rule as the data show it: active = GI50 up to about 1.1 µM and inactive = higher.

What was measured:
Test in all cases: inhibition of tumour cell growth, NCI panel, 48 h
[1] = test system: A549
[2] = test system: ACHN
[3] = test system: COLO 205
[4] = test system: EKVX
[5] = test system: HCC 2998
[6] = test system: HCT-116
[7] = test system: HCT-15
[8] = test system: KM12
[9] = test system: LOX IMVI
[10] = test system: NCI-H226
[11] = test system: NCI-H23
[12] = test system: NCI-H460
[13] = test system: NCI-H522
[14] = test system: OVCAR-8
[15] = test system: SK-MEL-28
[16] = test system: SN12C
[17] = test system: SW-620
[18] = test system: Malme-3M
[19] = test system: HOP-92

SMILES | GI50 [1] | GI50 [2] | GI50 [3] | GI50 [4] | GI50 [5] | GI50 [6] | GI50 [7] [µM] | GI50 [8] | GI50 [9] | GI50 [10] | GI50 [11] | GI50 [12] | GI50 [13] | GI50 [14] | GI50 [15] | GI50 [16] | GI50 [17] | GI50 [18] | GI50 [19]
[N-]=[N+]=Nc1ccccc1Oc1ccccc1 | > 100 µM (inactive) | > 100 µM (inactive) | > 100 µM (inactive) | > 100 µM (inactive) | > 100 µM (inactive) | > 100 µM (inactive) | > 100 | > 100 µM (inactive) | > 100 µM (inactive) | > 100 µM (inactive) | > 100 µM (inactive) | > 100 µM (inactive) | > 100 µM (inactive) | > 100 µM (inactive) | > 100 µM (inactive) | > 100 µM (inactive) | > 100 µM (inactive) | – | –
CCOC(=O)c1cnc2c(ccc3ncccc32)c1OCC | > 100 µM (inactive) | > 100 µM (inactive) | > 100 µM (inactive) | 84.3 µM (inactive) | > 100 µM (inactive) | > 100 µM (inactive) | > 100 | > 100 µM (inactive) | > 100 µM (inactive) | > 100 µM (inactive) | > 100 µM (inactive) | > 100 µM (inactive) | > 100 µM (inactive) | > 100 µM (inactive) | > 100 µM (inactive) | > 100 µM (inactive) | > 100 µM (inactive) | > 100 µM (inactive) | –
Cc1cc(=O)n2c(cc3cccccc32)n1 | > 100 µM (inactive) | > 100 µM (inactive) | > 100 µM (inactive) | > 100 µM (inactive) | > 100 µM (inactive) | – | > 100 | > 100 µM (inactive) | > 100 µM (inactive) | > 100 µM (inactive) | > 100 µM (inactive) | > 100 µM (inactive) | > 100 µM (inactive) | > 100 µM (inactive) | > 100 µM (inactive) | > 100 µM (inactive) | > 100 µM (inactive) | – | –
CN(C)c1ccc(C(C#N)NNC(=O)Cc2ccccc2)cc1 (stereo not drawn) | > 100 µM (inactive) | > 100 µM (inactive) | > 100 µM (inactive) | – | – | > 100 µM (inactive) | > 100 | > 100 µM (inactive) | > 100 µM (inactive) | > 100 µM (inactive) | > 100 µM (inactive) | > 100 µM (inactive) | > 100 µM (inactive) | > 100 µM (inactive) | > 100 µM (inactive) | > 100 µM (inactive) | > 100 µM (inactive) | > 100 µM (inactive) | > 100 µM (inactive)
COC(=O)C(C(=O)OC)C1CCCC(=O)C1 (stereo not drawn) | > 100 µM (inactive) | > 100 µM (inactive) | > 100 µM (inactive) | > 100 µM (inactive) | > 100 µM (inactive) | > 100 µM (inactive) | > 100 | > 100 µM (inactive) | > 100 µM (inactive) | – | > 100 µM (inactive) | > 100 µM (inactive) | – | > 100 µM (inactive) | > 100 µM (inactive) | > 100 µM (inactive) | > 100 µM (inactive) | > 100 µM (inactive) | > 100 µM (inactive)
CCN(CC)CCCNC(=O)Cc1ccccc1Nc1c(Cl)cccc1Cl | 18.3 µM (inactive) | 8.53 µM (inactive) | 13.7 µM (inactive) | 13.7 µM (inactive) | 3.01 µM (inactive) | 14 µM (inactive) | 14.9 | 19.8 µM (inactive) | 12.3 µM (inactive) | 18.5 µM (inactive) | 17.9 µM (inactive) | – | – | 16.2 µM (inactive) | 12.5 µM (inactive) | 14.5 µM (inactive) | 16.8 µM (inactive) | – | –
CCOC(=O)c1ccc(NC(=O)SCCC(=O)O)cc1 | > 100 µM (inactive) | 51.1 µM (inactive) | > 100 µM (inactive) | 0.841 µM (active) | > 100 µM (inactive) | > 100 µM (inactive) | > 100 | > 100 µM (inactive) | 64.3 µM (inactive) | 3.15 µM (inactive) | > 100 µM (inactive) | > 100 µM (inactive) | – | 56.4 µM (inactive) | > 100 µM (inactive) | > 100 µM (inactive) | > 100 µM (inactive) | – | –
NC1=NC2=C(CCCC2)C(c2cccs2)S1 (stereo not drawn) | 93.3 µM (inactive) | > 100 µM (inactive) | > 100 µM (inactive) | > 100 µM (inactive) | > 100 µM (inactive) | > 100 µM (inactive) | > 100 | > 100 µM (inactive) | – | – | > 100 µM (inactive) | > 100 µM (inactive) | 27.9 µM (inactive) | > 100 µM (inactive) | > 100 µM (inactive) | > 100 µM (inactive) | > 100 µM (inactive) | 92.9 µM (inactive) | 47.8 µM (inactive)
O=C1c2ccccc2C(=O)N1CCCOCc1cnc(O)nc1O | > 100 µM (inactive) | > 100 µM (inactive) | > 100 µM (inactive) | > 100 µM (inactive) | – | > 100 µM (inactive) | > 100 | > 100 µM (inactive) | > 100 µM (inactive) | > 100 µM (inactive) | > 100 µM (inactive) | > 100 µM (inactive) | > 100 µM (inactive) | > 100 µM (inactive) | > 100 µM (inactive) | > 100 µM (inactive) | > 100 µM (inactive) | > 100 µM (inactive) | > 100 µM (inactive)
CC1=C(c2cc(C(=O)Nc3ccc(Cl)cc3)nc(S)n2)Sc2ccccc2N1 | > 100 µM (inactive) | > 100 µM (inactive) | > 100 µM (inactive) | > 100 µM (inactive) | > 100 µM (inactive) | > 100 µM (inactive) | > 100 | > 100 µM (inactive) | > 100 µM (inactive) | – | > 100 µM (inactive) | > 100 µM (inactive) | > 100 µM (inactive) | > 100 µM (inactive) | > 100 µM (inactive) | > 100 µM (inactive) | > 100 µM (inactive) | > 100 µM (inactive) | > 100 µM (inactive)
CCOC(=O)c1ccc(/N=N\c2ccc(N(CCC#N)CCC#N)cc2C)cc1 | > 100 µM (inactive) | > 100 µM (inactive) | > 100 µM (inactive) | > 100 µM (inactive) | > 100 µM (inactive) | – | > 100 | > 100 µM (inactive) | > 100 µM (inactive) | > 100 µM (inactive) | 95.1 µM (inactive) | – | 30.4 µM (inactive) | > 100 µM (inactive) | – | > 100 µM (inactive) | > 100 µM (inactive) | > 100 µM (inactive) | –
O=C(NCCCN1CCN(CCCNC(=O)Nc2cc(Cl)ccc2Cl)CC1)Nc1cc(Cl)ccc1Cl | > 100 µM (inactive) | > 100 µM (inactive) | 45.5 µM (inactive) | – | – | 79.3 µM (inactive) | 65.3 | > 100 µM (inactive) | 37 µM (inactive) | > 100 µM (inactive) | 87.7 µM (inactive) | > 100 µM (inactive) | 38.6 µM (inactive) | 61.8 µM (inactive) | 60.3 µM (inactive) | 83 µM (inactive) | > 100 µM (inactive) | 24.3 µM (inactive) | 50.6 µM (inactive)
Cc1cc([N+](=O)[O-])c(C)c2c1[nH]c1ccc(Cl)cc12 | > 100 µM (inactive) | > 100 µM (inactive) | 71 µM (inactive) | > 100 µM (inactive) | > 100 µM (inactive) | > 100 µM (inactive) | 96.2 | > 100 µM (inactive) | > 100 µM (inactive) | > 100 µM (inactive) | > 100 µM (inactive) | > 100 µM (inactive) | 18.8 µM (inactive) | > 100 µM (inactive) | > 100 µM (inactive) | > 100 µM (inactive) | 71.9 µM (inactive) | > 100 µM (inactive) | –
O=C1NC2C(CCO)CC=C[C@H]2c2cc3c(cc21)OCO3 (stereo partly drawn) | > 100 µM (inactive) | > 100 µM (inactive) | > 100 µM (inactive) | > 100 µM (inactive) | > 10 µM (inactive) | > 100 µM (inactive) | > 100 | > 100 µM (inactive) | > 100 µM (inactive) | 75.3 µM (inactive) | > 100 µM (inactive) | > 100 µM (inactive) | > 100 µM (inactive) | > 100 µM (inactive) | > 100 µM (inactive) | > 100 µM (inactive) | > 100 µM (inactive) | > 100 µM (inactive) | –
Cc1cc2c(cc1O)CC[C@@H]1[C@@H]2CC[C@]2(C)[C@@H](O)CC[C@@H]12 | 8.02 µM (inactive) | 18.9 µM (inactive) | 17.6 µM (inactive) | – | 11.4 µM (inactive) | – | 4.08 | 4.52 µM (inactive) | 11 µM (inactive) | – | 13.6 µM (inactive) | 8.65 µM (inactive) | 7.45 µM (inactive) | 19.1 µM (inactive) | 10.8 µM (inactive) | 13.3 µM (inactive) | 4.28 µM (inactive) | 6.73 µM (inactive) | 14.9 µM (inactive)
Cc1cc(NS(=O)(=O)c2ccc(NC(=O)c3cccc4c(Nc5ccc(S(=O)(=O)Nc6cc(C)on6)cc5)c5ccc(Cl)cc5nc34)cc2)no1 | 61.1 µM (inactive) | 85.7 µM (inactive) | 56.1 µM (inactive) | > 100 µM (inactive) | 56 µM (inactive) | 23.2 µM (inactive) | 45.9 | 69.2 µM (inactive) | 53.7 µM (inactive) | – | 45.1 µM (inactive) | 65 µM (inactive) | 31.4 µM (inactive) | > 100 µM (inactive) | 41 µM (inactive) | 51.2 µM (inactive) | 76.7 µM (inactive) | > 100 µM (inactive) | 24.3 µM (inactive)
CCC(O)CCCCCCCCCCCCCCC(=O)O (stereo not drawn) | > 100 µM (inactive) | > 100 µM (inactive) | > 100 µM (inactive) | > 100 µM (inactive) | – | > 100 µM (inactive) | – | 61.8 µM (inactive) | > 10 µM (inactive) | > 100 µM (inactive) | > 100 µM (inactive) | > 100 µM (inactive) | > 100 µM (inactive) | > 100 µM (inactive) | > 100 µM (inactive) | > 100 µM (inactive) | > 100 µM (inactive) | > 100 µM (inactive) | > 100 µM (inactive)
